Legend:
lyric/metadherin = target: T1, lyric/metadherin (Homo sapiens, UniProt Q86UE4); assay: Acyl resin-assisted capture detection of lyric/metadherin palmitoylation in HeLa cells; assay type: cell-based; conditions: 1.25 μmol/10^7 cells, relative to vehicle
T1 construct: we detected the palmitoylation levels of eight known palmitoylated proteins after treatment with 1; endogenous in cells; host or cells: HeLa
T1 sequence (Q86UE4 1-582): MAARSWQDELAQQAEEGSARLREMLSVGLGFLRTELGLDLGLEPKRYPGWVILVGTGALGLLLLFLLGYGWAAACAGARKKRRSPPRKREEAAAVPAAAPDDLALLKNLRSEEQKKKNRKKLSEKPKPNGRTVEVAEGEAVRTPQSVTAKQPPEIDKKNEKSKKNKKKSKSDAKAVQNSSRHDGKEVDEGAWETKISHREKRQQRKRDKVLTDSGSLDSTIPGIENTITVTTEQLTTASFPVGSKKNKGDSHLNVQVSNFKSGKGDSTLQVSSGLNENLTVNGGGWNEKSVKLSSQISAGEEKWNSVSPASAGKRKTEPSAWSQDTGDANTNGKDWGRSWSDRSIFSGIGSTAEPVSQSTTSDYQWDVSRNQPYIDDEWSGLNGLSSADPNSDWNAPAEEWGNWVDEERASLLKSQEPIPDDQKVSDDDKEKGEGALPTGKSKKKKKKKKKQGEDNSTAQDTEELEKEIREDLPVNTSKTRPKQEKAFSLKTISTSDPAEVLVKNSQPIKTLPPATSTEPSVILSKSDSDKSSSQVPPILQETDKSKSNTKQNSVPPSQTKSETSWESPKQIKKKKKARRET
Experimental: (§1) HeLa cells were grown to confluency in 10 cm plates. Stock solutions of compounds were prepared in DMSO as before and diluted to the final indicated concentration in 5.5 mL of OptiMEM media before adding to cells. Cells were incubated at 37° C. for 20 min and then media removed and 3 mL of HBSS added to each plate. Cells were detached using a cell scraper, pelleted by centrifugation at 1,000 rcf for 5 min and the pellet processed using a CAPTUREome S-Palmitoylated Protein Kit (Badrilla, UK) according to the manufacturer's protocol. Samples were resolved by electrophoresis using 4-20% SDS-polyacrylamide gels (Bio-Rad) under denaturing and reducing conditions. Proteins were then electrotransferred to a PVDF membrane (Bio-Rad). […]
(§2) Assays were performed in 3 biological replicates. […] Western blots were analyzed using ImageJ^1. […]

calnexin = target: T2, calnexin (Homo sapiens, UniProt P27824); assay: Acyl resin-assisted capture detection of calnexin palmitoylation in HeLa cells; assay type: cell-based; conditions: 1.25 μmol/10^7 cells, relative to vehicle
T2 construct: we detected the palmitoylation levels of eight known palmitoylated proteins after treatment with 1; endogenous in cells; host or cells: HeLa
T2 sequence (P27824 21-592): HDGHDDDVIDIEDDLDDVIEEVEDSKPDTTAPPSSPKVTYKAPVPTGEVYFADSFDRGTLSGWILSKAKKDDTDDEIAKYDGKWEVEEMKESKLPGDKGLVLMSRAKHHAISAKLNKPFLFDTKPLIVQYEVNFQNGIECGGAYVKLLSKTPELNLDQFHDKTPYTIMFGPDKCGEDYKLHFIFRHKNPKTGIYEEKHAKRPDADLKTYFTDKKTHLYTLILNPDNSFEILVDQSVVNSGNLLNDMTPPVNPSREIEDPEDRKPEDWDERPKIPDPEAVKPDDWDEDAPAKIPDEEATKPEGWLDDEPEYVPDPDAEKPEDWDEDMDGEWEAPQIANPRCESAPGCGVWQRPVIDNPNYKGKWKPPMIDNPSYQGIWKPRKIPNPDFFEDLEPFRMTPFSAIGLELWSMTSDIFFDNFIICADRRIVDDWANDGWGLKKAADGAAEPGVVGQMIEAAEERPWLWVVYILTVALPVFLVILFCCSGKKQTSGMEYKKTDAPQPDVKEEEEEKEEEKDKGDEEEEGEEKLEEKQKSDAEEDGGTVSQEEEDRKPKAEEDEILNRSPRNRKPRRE
Experimental: as §1, §2

With `CCCCCCCCNC(=O)[C@@H](N)CS` [compound 1, H2N-L-Cys-Oct] the “reduction of palmitoylation level of lyric/metadherin” value (lyric/metadherin) was greater than 80% and the “reduction of palmitoylation level of calnexin” value (calnexin) was 19-40%.

Reference: US20210023065A1, “AMPHIPHILIC THIOL COMPOUNDS AND USES THEREOF” (THE REGENTS OF THE UNIVERSITY OF CALIFORNIA, priority 2018, published 2021)
